In PubChem BioAssay (NCI):
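All cell lines were grown in 96-well plates and treated with compound for 48 hours. Definition used: TGI = concentration required for complete inhibition of growth.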

Key:
Assay in all cases: NCI tumour cell line growth inhibition, 48 h
[1] = system: BT-549 breast
[2] = system: EKVX NSCLC
[3] = system: HOP-92 NSCLC
[4] = system: K-562 leukemia
[5] = system: M14 melanoma
[6] = system: MDA-N
[7] = system: NCI/ADR-RES ovarian
[8] = system: OVCAR-8 ovarian
[9] = system: RPMI-8226 leukemia
[10] = system: SF-539 CNS
[11] = system: SK-MEL-2 melanoma
[12] = system: SNB-19 CNS
[13] = system: SW-620 colon
[14] = system: HCT-15 colon
[15] = system: HS 578T breast
[16] = system: NCI-H522 lung
[17] = system: HL-60(TB) leukemia
[18] = system: MALME-3M melanoma

COc1cc(C(O)(CC#N)c2cc3c(cc2Br)OCO3)cc(OC)c1OC (configuration not stated)
TGI [1]: > 100 µM
TGI [2]: > 100 µM
TGI [3]: > 100 µM
TGI [4]: > 100 µM
TGI [5]: 50.5 µM
TGI [6]: > 100 µM
TGI [7]: > 100 µM
TGI [8]: > 100 µM
TGI [9]: > 100 µM
TGI [10]: 34.9 µM
TGI [11]: > 100 µM
TGI [12]: 76.1 µM
TGI [13]: > 100 µM

CCCC(=O)Nc1cc(/C=C/C(=O)N2CC(CCl)c3c2cc(O)c2[nH]cc(C)c32)n(C)c1 (configuration not stated)
TGI [1]: 0.000504 µM
TGI [2]: 0.00293 µM
TGI [14]: > 0.196 µM
TGI [3]: < 2.5e-05 µM
TGI [15]: 6.35e-05 µM
TGI [4]: > 0.25 µM
TGI [16]: < 2.5e-05 µM
TGI [7]: 0.00372 µM
TGI [8]: 0.000532 µM
TGI [9]: 0.00154 µM
TGI [10]: < 2.5e-05 µM
TGI [11]: < 2.5e-05 µM
TGI [12]: 0.00608 µM
TGI [13]: > 0.25 µM

Cc1ccc(S(=O)(=O)N2CCCSCC2)cc1
TGI [14]: > 100 µM
TGI [3]: > 100 µM
TGI [15]: > 100 µM
TGI [4]: > 100 µM
TGI [6]: > 100 µM
TGI [16]: > 100 µM
TGI [7]: > 100 µM
TGI [8]: > 100 µM
TGI [12]: > 100 µM
TGI [13]: > 100 µM

CC(=O)C1CC[C@@H]2[C@H](CC[C@]3(C)[C@@H](O)CC[C@@H]23)[C@H]1C(=O)O (some centres not stated)
TGI [1]: > 100 µM
TGI [2]: > 100 µM
TGI [14]: > 100 µM
TGI [17]: > 100 µM
TGI [3]: > 100 µM
TGI [15]: > 100 µM
TGI [4]: > 100 µM
TGI [5]: > 100 µM
TGI [18]: > 100 µM
TGI [16]: > 100 µM
TGI [7]: > 100 µM
TGI [8]: > 100 µM
TGI [9]: > 100 µM
TGI [10]: > 100 µM
TGI [11]: > 100 µM
TGI [12]: > 100 µM
TGI [13]: > 100 µM

O=C1c2ccccc2C(=O)N1CC(O)COc1cccc2ccccc12 (configuration not stated)
TGI [2]: > 100 µM
TGI [14]: > 100 µM
TGI [17]: > 100 µM
TGI [4]: > 100 µM
TGI [5]: > 100 µM
TGI [18]: > 100 µM
TGI [6]: > 100 µM
TGI [16]: > 100 µM
TGI [7]: > 100 µM
TGI [8]: > 100 µM
TGI [9]: > 100 µM
TGI [12]: > 100 µM
TGI [13]: > 100 µM
